Assay results reported in patent US20080058636A1, “METHODS OF MYOCARDIAL IMAGING” (Epix Pharmaceuticals, Inc., priority 2005, published 2008).
Bridge positions count the residues as written; N and C are the ends. Ends that are not written are not given here. bb‑DTPA gadolinium tetramer = not defined here

How the values were obtained:
[1] = In vivo heart uptake in mice, gadolinium by ICP-MS (tail vein); set-up: species or system BALB/c mice; settings: mouse, 10 μmol/kg tail vein, 15 minutes post-injection
Method: In vivo heart uptake of these two compounds were also compared. […] The animals were sacrificed at 15 minutes post-injection. The organs were immediately removed and rinsed in saline, and then blotted dry. […] Both compounds have similar concentrations in the blood.

infarcted myocardium [2] = experiment: Mouse model of chronic infarction, MR imaging; settings: mice with 7 day, 40 day or 210 day infarcts, 25 μmol/kg i.v.
Method: Myocardial infarction was induced in C57BL/6 mice by occlusion of the left anterior descending coronary artery followed by reperfusion. The mice were anesthetized with an intraperitoneal (i.p.) injection of 100 μg pentobarbital sodium per gram body weight and a thorocotamy was performed. The pericardium was removed and the left anterior artery was sutured with a 7.0 silk suture for 60 minutes after which reperfusion was established.
Imaging was performed on separate animals at 7 days, 40 days, or 210 days following infarction. Imaging was performed using on a Varian 4.7 T MRI system Mice were anesthetized with isoflurane (1 vol. % in oxygen). Three pediatric electrocardiogram (ECG) leads were attached to shaved limbs and a rectal temperature probe was placed. […] Temperature was maintained at 37.0±0.5° C. using circulating hot water. Imaging was performed prior to, and serially (every 5 minutes) post intravenous (tail vein) injection of 25 μmol/kg Compound ID NO. […] 6-8 short-axis inversion-recovery slices covering the whole heart from base to apex were acquired with TI=430 ms, TR=1000 ms, RE=4.3 ms and 2 averages.
A heart with a 40 day old infarct was explanted, thoroughly washed in saline solution and fixed in a 3% by volume isotonic solution of formaldehyde for 12 hrs at 3° C. They were washed in PBS and stored in 70% ETOH before embedding in paraffin. […]

infarcted myocardium [3] = experiment: Myocardial infarction MR imaging in mouse (7 days post MI); settings: 25 μmol/kg i.v.
Method: A myocardial infarct (MI) was induced in a 28 g C57BL/6 mouse by a 1-hr occlusion of the left anterior descending coronary artery, followed by reperfusion. The mouse was allowed to recover. Seven days post MI, the mouse was anesthetized using a 2% mixture of isoflurane in oxygen and anesthesia was maintained with a 1% mixture. The mouse forelimbs were shaved and fitted with pediatric ECG leads (Blue Sensor, BRS-50-K/UJS, Ambu, Inc., Linthicum, Md.). […] Temperature was maintained at 37° C. using tubing that contained circulating, thermostated water. An i.v. line was implanted in the tail vein and the mouse was placed in the magnet.
Images were acquired on a Varian 4.7-T Inova scanner. A cardiac-gated gradient echo inversion recovery sequence was used whereby the inversion time was set to null the signal from the myocardium. The inversion pulse was a non-selective sinc pulse with a TI of 430 ms and TR of 3 seconds. The excitation is slice selective at 90 degrees and 3 to 4 lines were acquired per TR. Scan time was 4-5 minutes.
Baseline images were acquired. Typically 3-4 short-axis slices were acquired. […] Imaging was repeated out to an hour post injection.

[4] = Biodistribution (heart, blood) after tail vein injection, radiotracer counting; format: in vivo, Sprague-Dawley rats; settings: for Blood (% ID/g) / Heart (% ID/g): rat, 0.5 μmol/kg tail vein
Method: Concentration estimates were decay corrected. Studies were performed at least in duplicate.

[5] = system: perfused Langendorff rat heart; experiment: Equilibrium binding to perfused Langendorff rat heart; settings: for heart uptake relative to GdDTPA: perfused rat heart
Method: After deep anesthesia with pentobarbital (80 mg/kg ip), the chest cavity of a male Sprague Dawley rat (300 g) was opened, retracted and the heart was removed immediately and placed in an ice-cold normal Krebs-Henseleit (K-H) solution (NaCl, 118 mM; KCl, 4.7 mM; CaCl2, 2.5 mM; MgSO4, 1.2 mM; KH2PO4, 1.2 mM; NaHCO3, 25 mM; glucose, 5.5 mM). A K-H buffer filled 20 Gauge needle was inserted into the apex of the heart penetrating into the bottom of the chamber. This was attached to a pressure transducer used to record and monitor heart function. Perfusion pressure (60 mmHg) was monitored using a second transducer. The heart was perfused at a constant flow rate of 10-12 mL/min with 37° C. Krebs-Henseleit buffer saturated with a mixture of 95% O2 and 5% CO2 gas. The heart was paced at 300 beats/min.
Two peptide test articles, a high collagen binding peptide (SEQ ID NO: 144) and a low collagen binding peptide (SEQ ID NO: 173), are compared to GdDTPA. The appropriate test article was added to the K-H buffer solution to a total concentration of either 3 or 30 μM. Also added to the K-H buffer was a radiotracer analog of each peptide or GdDTPA. For the peptides, the radiotracer was an aliquot of the appropriate I-125 labeled peptide derivative (see Example 5 for protocol). For GdDTPA, the tracer added was Tc-99m labeled DTPA. The amount of radioactivity added to the buffer solution was 1-5 μCi.
The heart was perfused for a period of 10 minutes and the perfusion solution was recycled through the heart. The total volume of K-H buffer used was 50-60 mL. After 10 min, the heart was removed from the apparatus and any connective tissue was removed. The heart was opened, fluid in the chambers drained, and the interior blotted dry with filter paper. The heart was then weighed and the radioactivity in the heart measured with a Packard Cobra 5003 Gamma Scintillation counter. An aliquot of the K-H buffer was also weighed and counted. Studies were performed at least in duplicate.
The dual peptide gadolinium tetramer (Compound ID 803) was compared to GdDTPA. Compound ID 803 and GdDTPA were added to the K-H buffer solution to a total concentration of 3 μM. Also added to the K-H buffer was a radiotracer analog of Compound ID 803 or GdDTPA. For Compound ID 803, the radiotracer was an aliquot of the In-111 labeled compound. For GdDTPA, the tracer added was Tc-99m labeled DTPA. The amount of radioactivity added to the buffer solution was 1-5 μCi.

[6] = system: perfused Langendorff rat heart; experiment: Washout kinetics from perfused Langendorff rat heart; settings: for fraction of compound present at 0 minutes post infusion that remains at 10 minutes: 10 minutes after infusion
Method: A K-H buffer filled 20 Gauge needle was inserted into the apex of the heart penetrating into the bottom of the chamber. This was attached to a pressure transducer used to record and monitor heart function. Perfusion pressure (60 mmHg) was monitored using a second transducer. The heart was perfused at a constant flow rate of 10-12 mL/min with 37° C. […] The heart was paced at 300 beats/min.
A Langendorff rat heart preparation was perfused with K-H buffer at a rate of 10-12 mL/min. […] After the infusion was finished, the heart was either removed or perfusion was allowed to continue for an additional 10 minutes and then the heart was removed. The perfusion buffer was not recirculated through the heart. After removal of any connective tissue, the heart was opened, fluid in the chambers drained, and the interior blotted dry with filter paper. […] An aliquot of the K-H buffer was also weighed and counted. Concentration estimates were decay corrected. Studies were performed at least in duplicate.

[7] = MR phantom study: T1 of samples at 0.47 Tesla; format: physicochemical
Method: Acid soluble human collagen type I extracted from placenta (Sigma, cat# C7774, lot#083K375) was dissolved in 15 mM HCl (3.5 mg/mL) by vortexing and gently shaking for 3-4 hours at 4° C. The acid soluble collagen was dialyzed against PBS (pH 7.4). Protein concentration was determined by the BCA method (Pierce, Cat#23225) using bovine collagen (Vitrogen, cat#FXP-019) as a reference standard. The final collagen concentration for the stock solution was 9 μM.
Rat collagen (acid soluble, type I, rat tail, Upstate USA, Inc. Cat# 08-115) was dialyzed against 10 mM Phosphate buffer (NaH2PO4, pH 4.2). The final collagen concentration for the stock solution was approx. 12 μM.
(§1) Samples: • 1. […] Sample prepared as sample 2, but centrifuged to separate insoluble rat collagen gel • 5. Sample prepared as sample 3, but centrifuged to separate insoluble human collagen gel • 6. 27 μM GdDTPA solution in PBS, pH 7.4 • 7. 27 μM GdDTPA in a solution of 5.0 μM rat type I collagen in 10 mM phosphate buffer, pH 5 incubated at 37° C. overnight to form a gel • 8. Sample prepared as in sample 7, but centrifuged to separate insoluble rat collagen gel • 9. Homogeneous gel of 5 μM rat collagen • 10. Homogeneous gel of 7.5 μM human collagen
T1 was determined for samples 1, 2, 3, 6, 7, 9, 10 at 0.47 Tesla using a Bruker NMS120 minispec NMR analyzer operating at 37° C.

rat type I collagen gel = molecular target: T1, rat type I collagen gel (Rattus norvegicus, UniProt P02454+P02466); experiment: MR phantom imaging of collagen gel samples at 4.7 T
T1 construct: Rat collagen (acid soluble, type I, rat tail, Upstate USA, Inc, cat# 08-115); purchased Upstate USA, Inc 08-115; host or cells: rat tail (tissue extract)
T1 sequence (P02454 152-1207 limits assumed): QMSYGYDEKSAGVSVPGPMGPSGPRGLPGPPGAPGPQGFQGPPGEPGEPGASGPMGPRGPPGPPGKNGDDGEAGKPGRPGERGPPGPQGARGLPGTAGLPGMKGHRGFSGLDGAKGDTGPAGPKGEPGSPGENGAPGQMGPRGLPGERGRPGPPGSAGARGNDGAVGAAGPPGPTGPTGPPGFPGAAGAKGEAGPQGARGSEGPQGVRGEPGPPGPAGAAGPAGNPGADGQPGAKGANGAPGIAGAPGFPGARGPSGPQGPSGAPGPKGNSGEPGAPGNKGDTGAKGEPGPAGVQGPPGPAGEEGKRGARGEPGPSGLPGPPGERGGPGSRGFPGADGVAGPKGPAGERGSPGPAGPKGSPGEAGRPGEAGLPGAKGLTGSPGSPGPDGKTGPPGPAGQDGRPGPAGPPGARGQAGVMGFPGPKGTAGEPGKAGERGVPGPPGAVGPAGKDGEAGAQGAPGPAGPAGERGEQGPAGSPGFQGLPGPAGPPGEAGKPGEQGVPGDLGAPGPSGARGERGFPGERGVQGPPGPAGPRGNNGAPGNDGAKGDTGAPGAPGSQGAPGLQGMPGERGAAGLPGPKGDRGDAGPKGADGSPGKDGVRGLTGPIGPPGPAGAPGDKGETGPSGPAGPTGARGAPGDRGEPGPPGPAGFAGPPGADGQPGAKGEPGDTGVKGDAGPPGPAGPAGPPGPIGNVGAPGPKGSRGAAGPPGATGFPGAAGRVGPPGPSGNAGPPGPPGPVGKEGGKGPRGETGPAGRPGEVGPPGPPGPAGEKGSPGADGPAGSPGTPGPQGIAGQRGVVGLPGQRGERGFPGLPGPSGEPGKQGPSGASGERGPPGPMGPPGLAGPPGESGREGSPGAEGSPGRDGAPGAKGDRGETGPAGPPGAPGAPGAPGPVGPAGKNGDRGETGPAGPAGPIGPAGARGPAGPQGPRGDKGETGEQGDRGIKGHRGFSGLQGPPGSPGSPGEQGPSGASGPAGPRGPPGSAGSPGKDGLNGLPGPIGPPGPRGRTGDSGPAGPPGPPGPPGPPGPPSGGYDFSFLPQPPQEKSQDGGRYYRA
T1 sequence (P02466 86-1125 limits assumed): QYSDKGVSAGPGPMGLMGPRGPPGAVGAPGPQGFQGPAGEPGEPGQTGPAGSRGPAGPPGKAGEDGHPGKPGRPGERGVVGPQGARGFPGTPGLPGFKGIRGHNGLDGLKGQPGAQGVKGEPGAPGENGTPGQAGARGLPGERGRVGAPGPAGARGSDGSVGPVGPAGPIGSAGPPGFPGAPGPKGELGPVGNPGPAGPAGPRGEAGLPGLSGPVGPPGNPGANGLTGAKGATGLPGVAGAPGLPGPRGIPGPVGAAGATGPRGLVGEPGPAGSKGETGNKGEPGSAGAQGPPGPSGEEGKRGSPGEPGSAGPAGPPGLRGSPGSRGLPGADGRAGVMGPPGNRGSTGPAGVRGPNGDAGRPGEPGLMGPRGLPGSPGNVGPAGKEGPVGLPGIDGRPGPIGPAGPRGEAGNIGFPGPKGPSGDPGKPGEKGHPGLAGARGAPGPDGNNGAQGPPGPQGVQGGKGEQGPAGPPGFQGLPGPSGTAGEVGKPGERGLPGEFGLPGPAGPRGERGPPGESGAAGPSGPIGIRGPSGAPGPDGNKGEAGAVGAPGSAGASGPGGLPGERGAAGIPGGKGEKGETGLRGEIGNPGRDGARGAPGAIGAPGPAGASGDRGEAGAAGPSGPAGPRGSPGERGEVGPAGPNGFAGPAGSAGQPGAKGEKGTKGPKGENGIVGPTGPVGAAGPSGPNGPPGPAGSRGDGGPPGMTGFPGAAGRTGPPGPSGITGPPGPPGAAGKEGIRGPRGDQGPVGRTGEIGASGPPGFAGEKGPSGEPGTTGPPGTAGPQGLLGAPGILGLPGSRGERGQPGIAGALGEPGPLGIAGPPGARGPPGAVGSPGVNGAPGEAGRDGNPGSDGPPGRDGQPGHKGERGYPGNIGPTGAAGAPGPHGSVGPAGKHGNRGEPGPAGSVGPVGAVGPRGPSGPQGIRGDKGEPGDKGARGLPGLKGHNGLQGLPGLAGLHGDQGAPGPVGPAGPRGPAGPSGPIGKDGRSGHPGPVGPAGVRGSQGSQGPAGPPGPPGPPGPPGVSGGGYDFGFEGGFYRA
Method: as §1
Samples for imaging were placed in glass tubes that were in turn placed in tubes containing water. Images were acquired at 4.7 T on a Bruker Biospec Imager using a Multi-Slice Multi-Echo Method with variable Relaxation Delay (MSMEVTR) experiment. The spin echo time and the relaxation delay were set to TE=11.2 ms and TR=500 ms, respectively with a flip angle of 30°. Images were acquired of sample 2, sample 4, sample 7, and sample 8. […] Sample 7 and 8 show uniform signal intensity.

[8] = buffer 3.0 μM, 10 minutes recirculating perfusion
[9] = buffer 30 μM, 10 minutes recirculating perfusion
[10] = 10 min after infusion, non-recirculated buffer
[11] = in 5.0 μM rat collagen gel, 10 μM Compound ID 1022 or 27 μM GdDTPA, 37° C.
[12] = in PBS pH 7.4, 10 μM Compound ID 1022 or 27 μM GdDTPA, 37° C.

Row | Compound | Heart:Blood ([4]; 1 min post injection) | Heart:Blood ([4]; 5 min post injection) | Blood (% ID/g) ([4]; 1 min post injection) | Heart (% ID/g) ([4]; 1 min post injection) | Blood (% ID/g) ([4]; 5 min post injection) | Heart (% ID/g) ([4]; 5 min post injection) | Heart:Buffer ([5]; buffer 3.0 μM) | Heart [5, 8] | Heart:Buffer ([5]; buffer 30 μM) | Heart [5, 9] | Heart (% ID/g) ([6]; 0 min after infusion) | Heart (% ID/g) [6, 10] | T1 [7, 11] | T1 [7, 12] | MR signal of centrifuged collagen gel pellet versus supernatant (rat type I collagen gel) | heart uptake relative to GdDTPA [5] | fraction of compound present at 0 minutes post infusion that remains at 10 minutes [6] | also measured
1 | CC(C)C[C@H](NC(=O)[C@@H]1CSSC[C@H](NC(=O)[C@H](Cc2c[nH]cn2)NC(=O)[C@H](Cc2c[nH]c3ccccc23)NC(=O)[C@H](CCCCNC(=O)CNC(=S)Nc2ccc(C[C@@H](CN(CCN(CC(=O)O)CC(=O)O)CC(=O)O)N(CC(=O)O)CC(=O)O)cc2)NC(=O)CNC(=S)Nc2ccc(C[C@@H](CN(CCN(CC(=O)O)CC(=O)O)CC(=O)O)N(CC(=O)O)CC(=O)O)cc2)C(=O)N[C@@H]([C@@H](C)O)C(=O)N[C@@H]([C@@H](C)O)C(=O)N[C@@H](CCCCNC(=S)Nc2ccc(C[C@@H](CN(CCN(CC(=O)O)CC(=O)O)CC(=O)O)N(CC(=O)O)CC(=O)O)cc2)C(=O)N[C@@H](Cc2ccccc2)C(=O)N2CCC[C@H]2C(=O)N[C@@H](Cc2c[nH]cn2)C(=O)N[C@@H](Cc2c[nH]cn2)C(=O)N[C@@H](Cc2ccc(O)cc2)C(=O)N1)C(=O)N[C@@H](Cc1ccc(O)cc1)C(=O)N[C@@H](Cc1ccc(-c2ccccc2)cc1)C(N)=O [Compound ID 800] | – | – | – | – | – | – | – | – | – | – | – | – | – | – | – | – | – | Gadolinium concentrations in the blood [1]: 14.3±2.3 nmol Gd/g tissue; Gadolinium concentrations in the heart [1]: 25.5±2.0 nmol Gd/g tissue; MR appearance of infarct zone (infarcted myocardium [2]): infarct zone as hyperintense relative to the normal, viable myocardium; enhancement of infarcted zones (infarcted myocardium [3]): hyperenhancement of infarcted zones; persistence of the enhancement (infarcted myocardium [3]): at least 1 hour
2 | O=C([O-])CN(CCN(CC(=O)[O-])CC(=O)O)CCN(CC(=O)[O-])CC(=O)O.[Gd+3] [GdDTPA, gadolinium diethylenetriaminepentaacetate, reference compound] | 0.26 | 0.26 | 1.2 ± 0.2 % ID/g | 0.32 ± 0.02 % ID/g | 0.67 ± 0.12 % ID/g | 0.17 ± 0.08 % ID/g | 0.42 ± 0.06 | 1.3 ± 0.3 nmol/g | 0.46 ± 0.03 | 14 ± 1.0 nmol/g | 2.9 ± 1.5 % ID/g | 0.014 ± 0.002 % ID/g | 2.410 s | 2.437 s | no increased concentration of GdDTPA in the gel relative to the supernatant | – | – | Heart ([5]; perfused Langendorff rat heart, 3 μM compound in recirculated K-H buffer, 10 min perfusion, radiotracer counting): 1.4 ± 0.02 nmol/g; Heart:Buffer ([5]; ratio of heart concentration to buffer concentration (3.0 μM), 10 min perfusion): 0.46 ± 0.05; Heart (% ID/g) ([6]; time after infusion 0 min, 1 mL of 300 μM infused at 1 mL/min, buffer not recirculated): 2.53 ± 0.50 % ID/g; Heart (% ID/g) ([6]; time after infusion 10 min, 1 mL of 300 μM infused at 1 mL/min, buffer not recirculated): 0.056 ± 0.011 % ID/g
3 | Compound ID 803: dual peptide, gadolinium tetramer; bb-DTPA tetramer diacid coupled to N-terminus of SEQ ID NO. 264 peptide ({bb‑DTPA gadolinium tetramer}-GQWHCTTSFPHHYCLYG; disulfide 5-14 (inferred); reading uncertain; also: Gd complex) [dual peptide, gadolinium tetramer; 264 peptide] | – | – | – | – | – | – | – | – | – | – | – | – | – | – | – | about 7 times | 54% | –
4 | Glu-DTPA-Gd-G.Q.W.H.C.T.T.R.F.P.H.H.Y.C.L.Y.G-PEG-H (GQWHCTTRFPHHYCLYG; disulfide 5-14 (inferred); not fully specified (N-terminus, C-terminus); also: Gd complex of DTPA) [SEQ ID NO. 186] | – | – | – | – | – | – | – | – | – | – | – | – | 2.370 s | 2.375 s | the pellet for sample 4 was much brighter than the supernatant | – | – | T1 ([7]; in 7.5 μM human collagen gel, 10 μM Compound ID 1022, 37° C.): 2.100 s
5 | Q W T C S G D A Y T W H C N Y E (QWTCSGDAYTWHCNYE) [SEQ ID NO. 144] | 0.38 | 1.08 | 1.8 ± 0.2 % ID/g | 0.68 ± 0.01 % ID/g | 0.46 ± 0.07 % ID/g | 0.50 ± 0.16 % ID/g | 3.3 ± 0.8 | 9.8 ± 2.3 nmol/g | 4.0 ± 1.7 | 120 ± 50 nmol/g | 4.6 ± 1.1 % ID/g | 3.1 ± 1.6 % ID/g | – | – | – | about 10 times | 68% | –
